Values joined by “and” are separate entries in the source; they are usually repeats but may differ in a detail not shown here. Equal entries are not always repeated.
Tested on: SW1271 complex spheroids with HUVEC/MSC, growth, % test/control
Assay: Anticancer human tumor SW1271 cell line growth inhibition [AhR];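 further: spheroids exposed to agents for 7 days before readout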
Details: for viability, T/C: stronger effect = lower value; active means viability on the fitted dose curve at most 10% of control; inactive means the rest
Excerpt: Multicellular complex tumor spheroid response to aryl hydrocarbon receptor antagonists in combination with a variety of drugs and investigational agents in selected tumor cell lines
The current study was undertaken to assess response to aryl hydrocarbon receptor antagonists in combination with standard-of-care drugs and investigational agents in solid tumor complex spheroid models. Complex spheroids include a stromal component modeled by human endothelial cells (HUVEC) and fibroblasts modeled by human mesenchymal stem cells (MSCs). The concentration ranges selected for each drug and investigational agent were based upon clinically achievable concentrations if the clinical Cmax of the agent was known.
Compounds. The drugs and investigational agents: BAY 2416964 (NSC825713), GNF351 (NSC835774), CH-223191 (NSC835775), CPI-455 (NSC825282), aza-TdCyd (NSC777586), decitabine (NSC127716), belinostat (NSC758774), entinostat (NSC756642), pevonedistat (NSC761192), tazemetostat (NSC777109), talazoparib (NSC765396), olaparib (NSC753686), selinexor (NSC780203), nedisertib (M3814, NSC802822), bortezomib (NSC756655), venetoclax (NSC766270), doxorubicin (NSC123127), elimusertib (BAY189344, NSC800525), ceralasertib (AZD6738, NSC777638), TAK-243 (NSC785004), alisertib (NSC759677), etoposide (NSC141540), topotecan (NSC609699), eribulin (NSC707389), gemcitabine (NSC613327), carboplatin (NSC241240), cisplatin (NSC119875), and SN-38 (NSC673596) were obtained from the National Cancer Institute (NCI) Developmental Therapeutics Program Chemical Repository (32). The FDA-approved anticancer drug set is available from the Developmental Therapeutics Program at https://dtp.cancer.gov/organization/dscb/obtaining/available plates.htm. […] The stock solutions were prepared in dimethyl sulfoxide (DMSO, Sigma-Aldrich, St. Louis, MO, cat. D2650), except for the platinum compounds which were prepared in saline (Quality Biological, Gaithersburg, MD, cat. 114-055-101), at 800-fold the tested concentration and stored at -70 degrees C prior to their use. All drugs and investigational agents were tested over a range starting from a high concentration at or near the clinical Cmax and decreasing in half-log increments. If the clinical Cmax for an agent had not been determined, the highest concentration tested was 10 microM (Table 1).
Cell Culture. All cells were maintained in an incubator at 37 degrees C and 5% CO2 with 95% humidity. The PDC lines were cultured according to standard operating procedures established by the NCI PDMR (https://pdmr.cancer.gov). Briefly, all PDCs were thawed and cultured in Matrigel-coated flasks prepared with a working solution of 1X Ham's F-12 nutrient mix, without supplementation (Invitrogen, Waltham, MA, cat. 11765054), 100 U/mL penicillin-streptomycin (Invitrogen, cat. 15140122), and 2.5% Matrigel (Corning Inc., Corning, NY, cat. 354248) for the first three passages. All PDCs were cultured in complete DMEM/F-12 media containing advanced DMEM/F-12 (Invitrogen, cat. 12634028), 4.9% defined fetal bovine serum, heat inactivated (HyClone Laboratories Inc., Logan, UT, cat. SH30070.03HI), 389 ng/mL hydrocortisone (Sigma-Aldrich, cat. H4001), 9.7 ng/mL human EGF recombinant protein (Invitrogen, cat. PHG0313), 23.4 microg/mL adenine (Sigma-Aldrich, cat. A2786), 97.3 U/mL penicillin-streptomycin (Invitrogen, cat. 15140122), 1.9 mM L-glutamine (Invitrogen, cat. 25030081), and 9.7 microM Y-27632 dihydrochloride (Tocris Bioscience, Bristol, United Kingdom, cat. 1254). The PDCs were cultured in complete DMEM/F12 media without 10 microM Y-27632 dihydrochloride for at least two passages prior to the screen. The established cell lines NCI-H1341 and […] were cultured in DMEM/F-12, HEPES (Invitrogen, cat. 11330032), 5% defined fetal bovine serum (HyClone Laboratories Inc., cat. SH30070.03), ITS premix universal culture supplement [insulin (5 microg/mL), transferrin (5 microg/mL), and selenious acid (5 ng/mL)] […]

[1] = curve of first compound, second compound 0.1 µM
[2] = curve of first compound, second compound 0.316 µM
[3] = curve of first compound, second compound 1 µM
[4] = curve of first compound, second compound 3.16 µM
[5] = curve of first compound, second compound 10 µM
[6] = second compound 0.1 µM, first compound 0.0316 µM
[7] = second compound 0.1 µM, first compound 0.1 µM
[8] = second compound 0.1 µM, first compound 0.316 µM
[9] = second compound 0.1 µM, first compound 1 µM
[10] = second compound 0.1 µM, first compound 3.16 µM
[11] = second compound 0.1 µM, first compound 10 µM
[12] = second compound 0.316 µM, first compound 0.0316 µM
[13] = second compound 0.316 µM, first compound 0.1 µM
[14] = second compound 0.316 µM, first compound 0.316 µM
[15] = second compound 0.316 µM, first compound 1 µM
[16] = second compound 0.316 µM, first compound 3.16 µM
[17] = second compound 0.316 µM, first compound 10 µM
[18] = second compound 1 µM, first compound 0.0316 µM
[19] = second compound 1 µM, first compound 0.1 µM
[20] = second compound 1 µM, first compound 0.316 µM
[21] = second compound 1 µM, first compound 1 µM
[22] = second compound 1 µM, first compound 3.16 µM
[23] = second compound 1 µM, first compound 10 µM
[24] = second compound 3.16 µM, first compound 0.0316 µM
[25] = second compound 3.16 µM, first compound 0.1 µM
[26] = second compound 3.16 µM, first compound 0.316 µM
[27] = second compound 3.16 µM, first compound 1 µM
[28] = second compound 3.16 µM, first compound 3.16 µM
[29] = second compound 3.16 µM, first compound 10 µM
[30] = second compound 10 µM, first compound 0.0316 µM
[31] = second compound 10 µM, first compound 0.1 µM
[32] = second compound 10 µM, first compound 0.316 µM
[33] = second compound 10 µM, first compound 1 µM
[34] = second compound 10 µM, first compound 3.16 µM
[35] = second compound 10 µM, first compound 10 µM

COc1cccc2c1C(=O)c1c(O)c3c(c(O)c1C2=O)CC(O)(C(=O)CO)CC3OC1CC(N)C(O)C(C)O1 (configuration not stated) + CC(CO)NC(=O)c1cc(-c2ccc(Cl)cc2)nn(-c2cnn(C)c2)c1=O
151 nM: IC50 [3]
active: viability, T/C [9] 5.59% | viability, T/C [10] 1.72% | viability, T/C [11] 3.58% | viability, T/C [15] 4% | viability, T/C [16] 1.69% | viability, T/C [17] 2.61% | viability, T/C [21] 3.81% | viability, T/C [22] 1.11% | viability, T/C [23] 2.5% | viability, T/C [27] 1.66% | viability, T/C [28] 2.16% | viability, T/C [29] 2.9% | viability, T/C [33] 0.78% | viability, T/C [34] 1.79% | viability, T/C [35] 3.41%
348 nM: IC50 [1]
337 nM: IC50 [4]
165 nM: IC50 [5]
inactive: viability, T/C [6] 62.5% | viability, T/C [7] 67.7% | viability, T/C [8] 54% | viability, T/C [12] 49.2% | viability, T/C [13] 61.1% | viability, T/C [14] 35.6% | viability, T/C [18] 72% | viability, T/C [19] 52.9% | viability, T/C [20] 39.2% | viability, T/C [24] 68.6% | viability, T/C [25] 54% | viability, T/C [26] 52.8% | viability, T/C [30] 58.7% | viability, T/C [31] 61.3% | viability, T/C [32] 37%
136 nM: IC50 [2]

CCc1c2c(nc3ccc(O)cc13)-c1cc3c(c(=O)n1C2)COC(=O)[C@]3(O)CC
177 nM and > 300 nM: IC50 (curve of compound)
inactive: viability, T/C (compound 0.000949 µM) 78.1% and 88.3% and 86.2% | viability, T/C (compound 0.003 µM) 79.8% and 97.7% and 79% | viability, T/C (compound 0.00949 µM) 64.6% and 71.7% and 61.4% | viability, T/C (compound 0.03 µM) 67% and 58.3% and 59.9% | viability, T/C (compound 0.0949 µM) 55.6% and 56% and 60.6% | viability, T/C (compound 0.3 µM) 44.9% and 53.3% and 49.2%

O=C(C=Cn1cnc(-c2cc(C(F)(F)F)cc(C(F)(F)F)c2)n1)NNc1cnccn1 + CC(CO)NC(=O)c1cc(-c2ccc(Cl)cc2)nn(-c2cnn(C)c2)c1=O
911 nM: IC50 [2]
450 nM: IC50 [4]
625 nM: IC50 [3]
756 nM: IC50 [5]
996 nM: IC50 [1]
inactive: viability, T/C (second compound 0.1 µM, first compound 0.00949 µM) 108% | viability, T/C (second compound 0.1 µM, first compound 0.03 µM) 76.7% | viability, T/C (second compound 0.1 µM, first compound 0.0949 µM) 93.1% | viability, T/C (second compound 0.1 µM, first compound 0.3 µM) 70.5% | viability, T/C (second compound 0.1 µM, first compound 0.949 µM) 45.6% | viability, T/C (second compound 0.1 µM, first compound 3 µM) 34.3% | viability, T/C (second compound 0.316 µM, first compound 0.00949 µM) 74.4% | viability, T/C (second compound 0.316 µM, first compound 0.03 µM) 79.2% | viability, T/C (second compound 0.316 µM, first compound 0.0949 µM) 72.3% | viability, T/C (second compound 0.316 µM, first compound 0.3 µM) 63.7% | viability, T/C (second compound 0.316 µM, first compound 0.949 µM) 50% | viability, T/C (second compound 0.316 µM, first compound 3 µM) 31.7% | viability, T/C (second compound 1 µM, first compound 0.00949 µM) 73.9% | viability, T/C (second compound 1 µM, first compound 0.03 µM) 86.7% | viability, T/C (second compound 1 µM, first compound 0.0949 µM) 70.8% | viability, T/C (second compound 1 µM, first compound 0.3 µM) 60.4% | viability, T/C (second compound 1 µM, first compound 0.949 µM) 44% | viability, T/C (second compound 1 µM, first compound 3 µM) 40.5% | viability, T/C (second compound 3.16 µM, first compound 0.00949 µM) 85.2% | viability, T/C (second compound 3.16 µM, first compound 0.03 µM) 75.3% | viability, T/C (second compound 3.16 µM, first compound 0.0949 µM) 87.3% | viability, T/C (second compound 3.16 µM, first compound 0.3 µM) 57.4% | viability, T/C (second compound 3.16 µM, first compound 0.949 µM) 34.8% | viability, T/C (second compound 3.16 µM, first compound 3 µM) 37.8% | viability, T/C (second compound 10 µM, first compound 0.00949 µM) 79% | viability, T/C (second compound 10 µM, first compound 0.03 µM) 71.7% | viability, T/C (second compound 10 µM, first compound 0.0949 µM) 68.8% | viability, T/C (second compound 10 µM, first compound 0.3 µM) 92.2% | viability, T/C (second compound 10 µM, first compound 0.949 µM) 43.2% | viability, T/C (second compound 10 µM, first compound 3 µM) 27%

O=C(C=Cc1cccc(S(=O)(=O)Nc2ccccc2)c1)NO + CC(CO)NC(=O)c1cc(-c2ccc(Cl)cc2)nn(-c2cnn(C)c2)c1=O
inactive: viability, T/C [6] 98.4% | viability, T/C [7] 92.5% | viability, T/C [8] 75.4% | viability, T/C [9] 57.9% | viability, T/C [10] 24.7% | viability, T/C [12] 92.4% | viability, T/C [13] 87.6% | viability, T/C [14] 71.1% | viability, T/C [15] 45.5% | viability, T/C [16] 16.6% | viability, T/C [17] 11.7% | viability, T/C [18] 85.9% | viability, T/C [19] 80.8% | viability, T/C [20] 75.5% | viability, T/C [21] 63% | viability, T/C [22] 28.4% | viability, T/C [24] 85% | viability, T/C [25] 73.1% | viability, T/C [26] 65.2% | viability, T/C [27] 51.4% | viability, T/C [28] 27% | viability, T/C [30] 90.2% | viability, T/C [31] 76.2% | viability, T/C [32] 54.4% | viability, T/C [33] 57.1% | viability, T/C [34] 26.7% | viability, T/C [35] 9.34%
1500 nM: IC50 [3]
914 nM: IC50 [4]
active: viability, T/C [11] 9.02% | viability, T/C [23] 9.03% | viability, T/C [29] 10.7%
768 nM: IC50 [2]
793 nM: IC50 [5]
1200 nM: IC50 [1]
